In ChEMBL document CHEMBL3885861, “Open TG-GATES”:

Species on record: Rattus norvegicus
Assay: Open TG-GATES - Regimen: Single
Format: toxicity, organism-based, Sprague-Dawley
Set-up: regimen Single, gender Male, age 6 weeks
Conditions: in vivo, po, 1 mg/kg, route gavage, dose level Low; for Bas / Eos / Fbg / Hb / Ht / Lym / MCHC / MCV / Mono / Neu / Plat / RBC / Ret / WBC: tissue Blood; for KIDNEY_TOTAL: tissue Kidney; for LIVER: tissue Liver; for ALT / AST / BUN / CRE / Ca / Cl / DBIL / GLC / IP / K / LDH / Na / PL / RALB / TBIL / TC / TP / gamma-GTP: tissue Plasma

C[C@@H]1C[C@H]2[C@@H]3CCC4=CC(=O)C=C[C@]4(C)[C@@]3(F)[C@@H](O)C[C@]2(C)[C@@]1(O)C(=O)CO [DEXAMETHASONE]
Bas (3 h): 0%
Eos (3 h): 0.4%
Fbg (3 h): 254 mg/dL
Hb (3 h): 13.2 g/dL
Ht (3 h): 40.3%
Lym (3 h): 67%
MCHC (3 h): 32.7%
MCV (3 h): 64 fL
Mono (3 h): 3.4%
Neu (3 h): 29.2%
Plat (3 h): 115.4 x10_4/uL
RBC (3 h): 630 x10_4/ul
Ret (3 h): 8.3%
WBC (3 h): 45.1 x10_2/uL
KIDNEY_TOTAL (3 h): 0.7 g
LIVER (3 h): 11.2 g
ALT (3 h): 43.2 IU/L
AST (3 h): 72 IU/L
BUN (3 h): 17 mg/dL
CRE (3 h): 0.4 mg/dL
Ca (3 h): 11.2 mg/dL
Cl (3 h): 102.2 meq/L
DBIL (3 h): 0.01 mg/dL
GLC (3 h): 192.6 mg/dL
IP (3 h): 12 mg/dL
K (3 h): 4 meq/L
LDH (3 h): 100.6 IU/L
Na (3 h): 142.2 meq/L
PL (3 h): 172 mg/dL
RALB (3 h): 4.3 g/dL
TBIL (3 h): 0.042 mg/dL
TC (3 h): 102 mg/dL
TP (3 h): 6.2 g/dL
gamma-GTP (3 h): 1 IU/L
TERMINAL_BW (6 h): 204.4 g
Bas (6 h): 0%
Eos (6 h): 0.2%
Fbg (6 h): 250.2 mg/dL
Hb (6 h): 13.1 g/dL
Ht (6 h): 40.4%
Lym (6 h): 59%
MCHC (6 h): 32.6%
MCV (6 h): 64.5 fL
Mono (6 h): 3.2%
Neu (6 h): 37.2%
Plat (6 h): 113.5 x10_4/uL
RBC (6 h): 627 x10_4/ul
Ret (6 h): 6.5%
WBC (6 h): 28.2 x10_2/uL
KIDNEY_TOTAL (6 h): 0.5 g
LIVER (6 h): 10.8 g
ALT (6 h): 39 IU/L
AST (6 h): 73.8 IU/L
BUN (6 h): 17.4 mg/dL
CRE (6 h): 0.4 mg/dL
Ca (6 h): 10.9 mg/dL
Cl (6 h): 102.8 meq/L
DBIL (6 h): 0.008 mg/dL
GLC (6 h): 215.8 mg/dL
IP (6 h): 8.2 mg/dL
K (6 h): 4.3 meq/L
LDH (6 h): 91.4 IU/L
Na (6 h): 138.6 meq/L
PL (6 h): 179.4 mg/dL
RALB (6 h): 4.4 g/dL
TBIL (6 h): 0.038 mg/dL
TC (6 h): 124.4 mg/dL
TP (6 h): 6.3 g/dL
gamma-GTP (6 h): 0 IU/L
TERMINAL_BW (9 h): 198.1 g
Bas (9 h): 0%
Eos (9 h): 0.2%
Fbg (9 h): 263.4 mg/dL
Hb (9 h): 13.4 g/dL
Ht (9 h): 40.9%
Lym (9 h): 55.8%
MCHC (9 h): 32.7%
MCV (9 h): 64.7 fL
Mono (9 h): 1.4%
Neu (9 h): 42.4%
Plat (9 h): 127.4 x10_4/uL
RBC (9 h): 633 x10_4/ul
Ret (9 h): 7.3%
WBC (9 h): 28.3 x10_2/uL
KIDNEY_TOTAL (9 h): 0.5 g
LIVER (9 h): 10.7 g
ALT (9 h): 38.8 IU/L
AST (9 h): 76.6 IU/L
BUN (9 h): 19.2 mg/dL
CRE (9 h): 0.4 mg/dL
Ca (9 h): 10.6 mg/dL
Cl (9 h): 102 meq/L
DBIL (9 h): 0.006 mg/dL
GLC (9 h): 217 mg/dL
IP (9 h): 7.8 mg/dL
K (9 h): 4.4 meq/L
LDH (9 h): 96.2 IU/L
Na (9 h): 138 meq/L
PL (9 h): 181.6 mg/dL
RALB (9 h): 4.7 g/dL
TBIL (9 h): 0.038 mg/dL
TC (9 h): 126 mg/dL
TP (9 h): 6.8 g/dL
gamma-GTP (9 h): 0.8 IU/L
TERMINAL_BW (24 h): 210.9 g
Bas (24 h): 0%
Eos (24 h): 0.8%
Fbg (24 h): 239.6 mg/dL
Hb (24 h): 13.8 g/dL
Ht (24 h): 41.6%
Lym (24 h): 61.4%
MCHC (24 h): 33.1%
MCV (24 h): 64.9 fL
Mono (24 h): 4.8%
Neu (24 h): 33%
Plat (24 h): 122.7 x10_4/uL
RBC (24 h): 642.2 x10_4/ul
Ret (24 h): 5.8%
WBC (24 h): 73.8 x10_2/uL
KIDNEY_TOTAL (24 h): 0.5 g
LIVER (24 h): 12 g
ALT (24 h): 35.4 IU/L
AST (24 h): 79.8 IU/L
BUN (24 h): 16.4 mg/dL
CRE (24 h): 0.4 mg/dL
Ca (24 h): 10.9 mg/dL
Cl (24 h): 99.8 meq/L
DBIL (24 h): 0.016 mg/dL
GLC (24 h): 191.8 mg/dL
IP (24 h): 8 mg/dL
K (24 h): 4.9 meq/L
LDH (24 h): 110.2 IU/L
Na (24 h): 139.2 meq/L
PL (24 h): 219.2 mg/dL
RALB (24 h): 4.6 g/dL
TBIL (24 h): 0.046 mg/dL
TC (24 h): 104.2 mg/dL
TP (24 h): 6.4 g/dL
gamma-GTP (24 h): 0 IU/L
